These results are taken from patent US10695334B2, “Heteroaromatic carboxamide derivatives as plasma kallikrein inhibitors” (Boehringer Ingelheim International GmbH, priority 2018, dated 2020).

The structures appear in SMILES notation. pIC50: −log10 of the molar value.

Human PKK, sequence (P03952 391-638): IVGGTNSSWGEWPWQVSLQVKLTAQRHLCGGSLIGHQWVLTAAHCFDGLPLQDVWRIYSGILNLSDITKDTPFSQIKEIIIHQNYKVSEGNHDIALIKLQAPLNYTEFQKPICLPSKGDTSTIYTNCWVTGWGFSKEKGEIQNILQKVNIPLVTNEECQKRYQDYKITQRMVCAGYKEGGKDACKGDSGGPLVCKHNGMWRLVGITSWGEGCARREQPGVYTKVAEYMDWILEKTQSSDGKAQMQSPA
Human PKK, sequence (P03952 20-390 partner): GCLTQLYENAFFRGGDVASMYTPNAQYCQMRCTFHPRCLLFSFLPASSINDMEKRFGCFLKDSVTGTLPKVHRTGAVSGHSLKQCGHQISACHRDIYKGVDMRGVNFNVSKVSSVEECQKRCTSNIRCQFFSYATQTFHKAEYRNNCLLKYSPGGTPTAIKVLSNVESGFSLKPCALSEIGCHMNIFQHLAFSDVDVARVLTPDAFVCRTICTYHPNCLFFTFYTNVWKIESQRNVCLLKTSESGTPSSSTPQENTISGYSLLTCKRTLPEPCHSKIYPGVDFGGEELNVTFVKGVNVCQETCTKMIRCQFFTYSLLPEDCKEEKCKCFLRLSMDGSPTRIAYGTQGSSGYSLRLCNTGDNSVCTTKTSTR

This assay addresses Human PKK (Homo sapiens (Human), UniProt P03952). Description: Inhibition of PKK, endpoint assay (human PKK). The assay is classed as biochemical. The note with it: substrate H-Pro-Phe-Arg-AMC, 1 h room temperature. The protocol: Subsequently, PPACK II (Calbiochem) was added as a stop solution to achieve a final concentration of 1 μM and fluorescence was measured using an Envision Reader (PerkinElmer) with the wavelength excitation setting of 355 nm and the wavelength emission setting of 460 nm.
On to `Cc1nc(N2CC3CC(C2)O3)ccc1Cn1cc(C(=O)N[C@@H]2CCc3c2n[nH]c3C)cn1` [Example 64, N-[(6R)-3-Methyl-2H,4H,5H,6H-cyclopenta[c]pyrazol-6-yl]-1-[(2-methyl-6-{6-oxa-3-azabicyclo[3.1.1]heptan-3-yl}pyridin-3-yl)methyl]-1H-pyrazole-4-carboxamide], for which the pIC50 (usually the IC50 on a negative log10 scale, so that one unit is a factor of ten) is 7.49. Take `Cc1nc(N2CC3(CC3)C2)ncc1Cn1cc(C(=O)N[C@@H]2CCc3c(C)n[nH]c32)cn1` [Example 30, 1-[(2-{5-Azaspiro[2.3]hexan-5-yl}-4-methyl-pyrimidin-5-yl)methyl]-N-[(6R)-3-methyl-1H,4H,5H,6H-cyclopenta[c]pyrazol-6-yl]-1H-pyrazole-4-carboxamide]: the pIC50 is 8.10. Take `Cc1nc(N2CC(F)(C(F)(F)F)C2)ccc1Cn1cc(C(=O)N[C@@H]2CCc3c2n[nH]c3C)cn1` [Example 74, 1-({6-[3-Fluoro-3-(trifluoromethyl)azetidin-1-yl]-2-methylpyridin-3-yl}methyl)-N-[(6R)-3-methyl-2H,4H,5H,6H-cyclopenta[c]pyrazol-6-yl]-1H-pyrazole-4-carboxamide]: the pIC50 is 7.42. `Cc1nc(N2CC3(CCOC3)C2)ccc1Cn1cc(C(=O)N[C@@H]2CCc3c2n[nH]c3C)cn1` [Example 40, N-[(6R)-3-Methyl-2H,4H,5H,6H-cyclopenta[c]pyrazol-6-yl]-1-[(2-methyl-6-{6-oxa-2-azaspiro[3.4]octan-2-yl]pyridin-3-yl)methyl]-1H-pyrazole-4-carboxamide] had a pIC50 of 6.86. In turn, `Cc1nc(N2CC3C(C2)C3(F)F)ccc1Cn1cc(C(=O)N[C@H]2CCc3c(C)n[nH]c32)cn1` (stereo partly drawn) [Example 4, 1-[(6-{6,6-Difluoro-3-azabicyclo[3.1.0]hexan-3-yl}-2-methylpyridin-3-yl)methyl]-N-[(6S)-3-methyl-1H,4H,5H,6H-cyclopenta[c]pyrazol-6-yl]-1H-pyrazole-4-carboxamide] gave a pIC50 of 8.05. Molecule `Cc1nc(N2CC3C(C2)C3(C)C)ccc1Cn1cc(C(=O)N[C@@H]2CCc3c2n[nH]c3C)cn1` (stereo partly drawn) [Example 80, 1-[(6-{6,6-Dimethyl-3-azabicyclo[3.1.0]hexan-3-yl]-2-methylpyridin-3-yl)methyl]-N-[(6R)-3-methyl-2H,4H,5H,6H-cyclopenta[c]pyrazol-6-yl]-1H-pyrazole-4-carboxamide] gave a pIC50 of 8.05.

`Cc1nc(N2CCCCC2)ccc1Cn1cc(C(=O)N[C@@H]2CCc3c2n[nH]c3C)cn1` [Example 34, N-[(6R)-3-Methyl-2H,4H,5H,6H-cyclopenta[c]pyrazol-6-yl]-1-{[2-methyl-6-(piperidin-1-yl)pyridin-3-yl]methyl}-1H-pyrazole-4-carboxamide] showed a pIC50 of 7.96. In turn, `Cc1nc(N2CC(n3cccn3)C2)ccc1Cn1cc(C(=O)N[C@@H]2CCc3c2n[nH]c3C)cn1` [Example 58, N-[(6R)-3-Methyl-2H,4H,5H,6H-cyclopenta[c]pyrazol-6-yl]-1-({2-methyl-6[3-(1H-pyrazol-1-yl)azetidin-1-yl]pyridin-3-yl}methyl)-1H-pyrazole-4-carboxamide] gave a pIC50 of 7.70. This pIC50 lies 0.26 log units lower than the previous one. On to `Cc1nc(N2CCCCCC2)ccc1Cn1cc(C(=O)N[C@@H]2CCc3c2n[nH]c3C)cn1` [Example 65, 1-{[6-(Azepan-1-yl)-2-methylpyridin-3-yl]methyl}-N-[(6R)-3-methyl-2H,4H,5H,6H-cyclopenta[c]pyrazol-6-yl]-1H-pyrazole-4-carboxamide], for which the pIC50 is 8.00. Turning to `Cc1nc(N2C[C@@H]3CC(F)(F)C[C@@H]3C2)ccc1Cn1cc(C(=O)N[C@@H]2CCc3c2n[nH]c3C)cn1` [Example 75, 1-({6-[(3aR,6aS)-5,5-Difluoro-octahydrocyclopenta[c]pyrrol-2-yl]-2-methylpyridin-3-yl}-methyl)-N-[(6R)-3-methyl-2H,4H,5H,6H-cyclopenta[c]pyrazol-6-yl]-1H-pyrazole-4-carboxamide], the pIC50 was 7.72.
